These results are taken from US4539326A, “5-Oxo-5H-(1)benzopyrano(2,3-b)pyridine derivatives, their production and use as anti-inflammatory agents” (Takeda Chemical Industries, Ltd., priority 1982, dated 1985).

Test [1] has as its system phenylquinone writhing. The test is described as follows: mouse phenylquinone writhing method (analgesic activity). The test is classed as in vivo.
The test system of test [2] is adjuvant arthritis. Nature of the test: Action of inhibiting adjuvant arthritis (M. butyricum adjuvant, oral, 14 days). The test is classed as in vivo, male Sprague-Dawley rats (6-week old). The conditions noted are these: for Systemic inflammation score / Increase in body weight / Weight of thymus: 50 mg/kg oral once a day; for Systemic inflammation score: max score 20; for Increase in body weight / Weight of thymus: day 14; for Restraint of the increase in body weight (result in words) / Systemic inflammation score (result in words) / Weight of thymus (result in words): oral once a day for 14 days, compared with control group. The procedure: As experimental animal, male Sprague-Dawley rats (6-week old) were used.
(§1) Adjuvant arthritis was induced by suspending killed cells of mycobacteria (M. butyricum strain) in liquid paraffin and injecting the rats with the resultant suspension beneath the skin of the hind-paw. The suspension obtained by suspending 70 mg of the test specimen [disodium(7-ethyl-3-carboxylato-5-oxo-5H-[1]benzopyrano[2,3-b]pyridin-2-yl)acetate] in 7 ml of 4% gum arabic was administered orally to rats once a day at a rate of 0.5 ml per 100 g of body weight for the consecutive 14 days after the injection of adjuvant. The degrees or severities of the inflammations induced on the other hind paw not injected with adjuvant, front paws, tail and ears were graded 1 to 5, and the grades were summed up for each animal, with the highest mark in total for the four body spots being 20. In addition, effects exerted by the administration on the increase in body weight (difference between the body weights measured after 14 days and on the day of sensitization) and the weight of thymus were investigated, and were compared with those obtained with the control group.
as §1, with “in liquid paraffine and injecting” for “in liquid paraffin and injecting”, “skin of hind-paw. The” for “skin of the hind-paw. The”, “test specimen [ethyl(7-ethyl-3-ethoxycarbonyl-5-oxo-5H-[1]benzopyrano[2,3-b]pyridin-2-yl)acetate] in 7” for “test specimen [disodium(7-ethyl-3-carboxylato-5-oxo-5H-[1]benzopyrano[2,3-b]pyridin-2-yl)acetate] in 7”

In test [3] the test system is carrageenin-induced edema. Nature of the test: rat carrageenin-induced edema method (antiinflammatory activity). The test is classed as in vivo. (In general: The carrageenan paw model is a standard test of acute inflammation.)

As to `CCc1ccc2oc3nc(CC(=O)O)c(C(=O)O)cc3c(=O)c2c1` [disodium(7-ethyl-3-carboxylato-5-oxo-5H-[1]benzopyrano[2,3-b]pyridin-2-yl)acetate], in test [1], the Analgesic activity entry is “neither to exhibit the antiinflammatory activity in the rat carrageenin-induced edema method and the analgesic activity”. In test [2] (Experiment 1 (Table 1), day 12 after sensitization, control 7.0 ± 0.9, * P <0.05), the Systemic inflammation score is 3.7 ± 1.1. For the same molecule, the “Increase in body weight” value in test [2] (Experiment 1 (Table 1), control 42.2 ± 2.5) is listed as 50.0 ± 3.1 g. The Weight of thymus in test [2] (Experiment 1 (Table 1), control 211.7 ± 21.5, * P <0.05) was 375 ± 52.0 mg. Also, the Systemic inflammation score in test [2] (Experiment 1 (Table 1), day 14 after sensitization, control 8.8 ± 0.7, * P <0.05) was found to be 4.7 ± 1.6. In test [2], the “Restraint of the increase in body weight (result in words)” value is “improve the systemic inflammation score and the restraint of the increase in body weight”; the “Systemic inflammation score (result in words)” value is recorded as “improve the systemic inflammation score”; the “Weight of thymus (result in words)” value is given as “increase the weight of thymus”. The Antiinflammatory activity entry in test [3] is “neither to exhibit the antiinflammatory activity”.

As to `CCOC(=O)Cc1nc2oc3ccc(CC)cc3c(=O)c2cc1C(=O)OCC` [ethyl(7-ethyl-3-ethoxycarbonyl-5-oxo-5H-[1]benzopyrano[2,3-b]pyridin-2-yl)acetate], in test [2] (Experiment 2 (Table 2), day 12 after sensitization, control 6.7 ± 0.8, ** P <0.01), the Systemic inflammation score worked out at 3.3 ± 0.7. Besides, the “Increase in body weight” value in test [2] (Experiment 2 (Table 2), control 42.5 ± 3.2) was 43.3 ± 8.6 g. Further, the Weight of thymus in test [2] (Experiment 2 (Table 2), control 286.5 ± 34.3) is 444.2 ± 69.9 mg. Also, the Systemic inflammation score in test [2] (Experiment 2 (Table 2), day 14 after sensitization, control 8.0 ± 0.5, ** P <0.01) is 4.0 ± 1.0. In test [2], the “Restraint of the increase in body weight (result in words)” value is “improve the systemic inflammation score and the restraint of the increase in body weight”; the “Systemic inflammation score (result in words)” value was “improve the systemic inflammation score”; the “Weight of thymus (result in words)” value is on record as “tendency to increase the weight of thymus”.
